# Patent US7741359B2, “Hydrogen sulfide derivatives of non-steroidal anti-inflammatory drugs” (Antibe Therapeutics Inc., priority 2006, dated 2010)
# Entries after “also recorded” stand apart in the source; their conditions may differ.
# Experiments:
# [1] = system: leukocyte adherence to the vascular endothelium; assay: Leukocyte adherence to the vascular endothelium, intravital microscopy of mesenteric venules; details: for Number of Adherent Leukocytes: mean ± SEM
# Method: Briefly, post-capillary mesenteric venules in anesthetized rats are examined under a light microscope. […] All test compounds were prepared in a vehicle of 1% carboxymethylcellulose. Changes in leukocyte adherence within the venule were recorded with a video camera attached to the microscope, and quantification of the numbers of adherent leukocytes was performed in a blind manner through evaluation of the videotaped images. Each group consisted of 5 male, Wistar rats weighing 150-175 g. A leukocyte was considered “adherent” if it remained stationary for 30 seconds or more (results below are expressed as the mean ± SEM).
# [2] = Incidence of gastric damage at the end of the leukocyte adherence experiment; details: for Percent Incidence of Gastric Damage: end of experiment
# Method: Briefly, post-capillary mesenteric venules in anesthetized rats are examined under a light microscope. […] All test compounds were prepared in a vehicle of 1% carboxymethylcellulose. Changes in leukocyte adherence within the venule were recorded with a video camera attached to the microscope, and quantification of the numbers of adherent leukocytes was performed in a blind manner through evaluation of the videotaped images. Each group consisted of 5 male, Wistar rats weighing 150-175 g. A leukocyte was considered “adherent” if it remained stationary for 30 seconds or more (results below are expressed as the mean ± SEM). At the end of the experiment the stomach was opened and examined for the presence of gastric damage, under a dissecting microscope.
# [3] = Gastric damage (gastric damage score) in rats after oral dosing; details: for gastric damage: oral 60 μmol/kg, evaluated 3 hours later, FIG. 3
# [4] = target: T1, COX-1 (Rattus norvegicus, UniProt Q63921); assay: Whole blood thromboxane B2 synthesis of treated rats (inhibition of COX-1); type: in vivo; details: for COX-1 activity (whole blood thromboxane B2 synthesis): oral 60 μmol/kg, FIG. 4
# T1 construct: whole blood thromboxane synthesis, which occurs via COX-1; from tissue; host or cells: rat whole blood (ex vivo clotting after oral dosing)
# T1 sequence (Q63921 27-602): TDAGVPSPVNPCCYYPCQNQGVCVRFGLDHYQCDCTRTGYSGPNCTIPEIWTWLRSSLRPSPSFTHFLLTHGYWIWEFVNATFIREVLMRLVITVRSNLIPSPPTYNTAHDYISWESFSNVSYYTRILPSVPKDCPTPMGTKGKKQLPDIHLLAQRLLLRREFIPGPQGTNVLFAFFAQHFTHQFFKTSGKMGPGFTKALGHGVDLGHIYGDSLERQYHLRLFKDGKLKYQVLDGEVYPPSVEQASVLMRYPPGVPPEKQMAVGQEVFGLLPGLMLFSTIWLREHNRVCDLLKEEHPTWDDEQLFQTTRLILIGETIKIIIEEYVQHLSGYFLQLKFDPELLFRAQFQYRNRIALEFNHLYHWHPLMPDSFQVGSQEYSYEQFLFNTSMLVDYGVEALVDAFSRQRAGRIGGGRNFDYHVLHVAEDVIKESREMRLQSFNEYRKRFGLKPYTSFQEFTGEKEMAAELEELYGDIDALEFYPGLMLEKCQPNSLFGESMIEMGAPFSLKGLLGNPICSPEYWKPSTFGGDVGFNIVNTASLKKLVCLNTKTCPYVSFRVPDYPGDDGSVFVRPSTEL
# Method: Inhibition of COX-1 was also measured using the same rats. […] The samples were then centrifuged for 3 min at 9,000 g and the supernatant was frozen at −80° C. for subsequent measurement of thromboxane B2 concentrations using a specific ELISA.
# Inhibition of COX-1 was also measured using the same rats, using the same method as described for FIG. 4. […]
# [5] = target: T2, COX-2 (Rattus norvegicus, UniProt P35355); assay: Rat airpouch assay, exudate PGE2 after zymosan (inhibition of COX-2 in vivo)
# T2 construct: from tissue; host or cells: rat subcutaneous airpouch (in vivo, zymosan-induced inflammation)
# T2 sequence (P35355 18-604): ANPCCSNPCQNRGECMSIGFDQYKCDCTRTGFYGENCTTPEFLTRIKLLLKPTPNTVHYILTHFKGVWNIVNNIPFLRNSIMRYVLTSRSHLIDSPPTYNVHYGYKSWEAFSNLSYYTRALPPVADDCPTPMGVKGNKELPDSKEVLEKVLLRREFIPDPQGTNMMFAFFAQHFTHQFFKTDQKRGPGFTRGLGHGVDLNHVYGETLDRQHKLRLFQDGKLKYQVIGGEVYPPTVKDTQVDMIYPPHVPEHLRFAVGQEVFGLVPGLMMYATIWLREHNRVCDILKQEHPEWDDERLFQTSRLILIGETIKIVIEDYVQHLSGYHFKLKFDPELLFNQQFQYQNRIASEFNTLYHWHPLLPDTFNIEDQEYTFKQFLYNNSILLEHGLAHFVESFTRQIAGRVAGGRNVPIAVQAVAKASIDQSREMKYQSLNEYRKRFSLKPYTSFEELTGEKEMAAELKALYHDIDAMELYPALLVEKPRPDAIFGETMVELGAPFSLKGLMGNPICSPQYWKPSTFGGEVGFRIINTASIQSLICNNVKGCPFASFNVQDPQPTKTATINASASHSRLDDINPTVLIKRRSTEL
# Method: Briefly, a subcutaneous “pouch” is created by repeated injections of air over several days. Once established, inflammation in the pouch can be induced by injection of 1 mL of 1% zymosan. […] Another group of 5 rats was treated with the vehicle, but received an injection of 0.9% sterile saline into the pouch rather than zymosan. […]
# Each group consisted of 5 rats.
# [6] = Healing of acetic acid-induced gastric ulcers; type: in vivo, rat; details: starting 3 days after ulcer induction, FIG. 13
# Method: Gastric ulcers were induced via serosal application of acetic acid, as described by Elliott et al., A nitric oxide-releasing nonsteroidal anti-inflammatory drug accelerates gastric ulcer healing in rats. Gastroenterology 1995; 109: 524-530. […] After 4 days of such treatment, the rats were euthanized and the stomach was excised and photographed. The area (in mm^2) of the ulcer was determined planimetrically by an individual unaware of the treatments given to the rats. In a subgroup of 5 rats euthanized 3 days after induction of gastric ulcers (i.e., prior to initiation of drug treatment), the mean surface area of the ulcers was 24±2 mm^2.
# [7] = Carrageenan hindpaw edema model; type: in vivo, rat; details: oral, dose equimolar to diclofenac at 3 mg/kg, 30 min prior to carrageenan, compared with diclofenac, FIGS. 9, 10
# Method: Male, Wistar rats weighing 175-200 g were given the test compounds orally 30 min prior to subplantar injection of 100 ul of 1% lambda carrageenan. Paw volume measured using an Ugo Basile hydroplethysmometer prior to carrageenan injection and at 1-h intervals thereafter for 5 h.
# [8] = system: gastric prostaglandin E2 (PGE2) synthesis (COX-1 and/or COX-2); assay: Gastric prostaglandin E2 (PGE2) synthesis in excised rat gastric tissue; type: in vivo; details: oral; doses equimolar to diclofenac 20 mg/kg; tissue taken 3 h after administration; FIG. 2
# Method: Briefly, the tissue samples were minced with scissors for 30 min, then placed in 1 mL of sodium phosphate buffer (pH 7.4) and placed in a shaking water bath (37° C.) for 20 min.
# [9] = 60 μmol/kg twice-daily orally for 4 days
structure (smiles),measurement,setting,value
"O=C(Cc1ccccc1Nc1c(F)cccc1Cl)Oc1ccc(-c2cc(=S)ss2)cc1 [Compound III, [2-(2-chloro-6-fluorophenylamino)-phenyl]-acetic acid 4-(5-thioxo-5H-[1,2]dithiol-3-yl)-phenyl ester]",number of adherent leukocytes compared to the parent NSAID alone,[1]; intragastric 30 μmol/kg,significantly reduced the number of adherent leukocytes per 100 μm vessel length when compared to lumiracoxib alone
same,Number of Adherent Leukocytes,[1]; intragastric 30 μmol/kg,1.7 ± 0.3 per 100 μm vessel length
same,percent incidence of gastric damage compared to the parent NSAID alone,[2]; intragastric 30 μmol/kg,still showed no incidences of gastric damage
same,Percent Incidence of Gastric Damage,[2]; intragastric 30 μmol/kg,0%
"COc1ccc2cc(C(C)C(=O)Oc3ccc(-c4cc(=S)ss4)cc3)ccc2c1 (stereo not drawn) [Compound V, 2-(6-Methoxy-naphthale-2-yl)-propionic acid 4-(5-thioxo-5-H-[1,2]dithiol-3-yl)-phenyl ester]",gastric damage,[3],not detectable; also recorded: elicited significantly less damage than naproxen itself
same,number of adherent leukocytes compared to the parent NSAID alone,[1]; intragastric 60 μmol/kg,significantly reduced the number of adherent leukocytes per 100 μm vessel length
same,Number of Adherent Leukocytes,[1]; intragastric 60 μmol/kg,3.5 ± 0.7 per 100 μm vessel length
same,COX-1 activity (whole blood thromboxane B2 synthesis),[4],significantly (*p<0.05) inhibited COX-1 activity as compared to the vehicle-treated group; also recorded: somewhat less with Compound V than with naproxen or Compound XX
same,COX-2 activity (exudate PGE2),"[5]; 60 μmol/kg, FIG. 11",significantly suppressed COX-2 activity as compared to the group treated with vehicle
same,percent incidence of gastric damage compared to the parent NSAID alone,[2]; intragastric 60 μmol/kg,significantly reduced the percent incidence of gastric damage when compared to naproxen alone
same,Percent Incidence of Gastric Damage,[2]; intragastric 60 μmol/kg,0%
"COc1ccc2cc(C(C)C(=O)Oc3ccc(C(N)=S)cc3)ccc2c1 (stereo not drawn) [Compound XX, 2-(6-Methoxy-naphthalen-2-yl)-propionic acid 4-thiocarbamyl-phenyl ester]",gastric damage,[3],not detectable; also recorded: elicited significantly less damage than naproxen itself
same,COX-1 activity (whole blood thromboxane B2 synthesis),[4],"significantly (*p<0.05) inhibited COX-1 activity as compared to the vehicle-treated group; also recorded: significantly better at inhibiting thromboxane B2 synthesis than the ADT-OH equivalent, Compound V"
same,gastric ulcer healing (ulcer area),[6]; [9],exhibited significantly greater healing
"COc1ccc2cc([C@H](C)C(=O)O)ccc2c1 [Naproxen, naproxen, reference compound]",Number of Adherent Leukocytes,[1]; intragastric 60 μmol/kg,10.2 ± 0.4 per 100 μm vessel length
same,COX-2 activity (exudate PGE2),"[5]; 60 μmol/kg, FIG. 11",significantly suppressed COX-2 activity as compared to the group treated with vehicle
same,gastric ulcer healing (ulcer area),[6]; [9],exhibited similar degrees of healing
same,Percent Incidence of Gastric Damage,[2]; intragastric 60 μmol/kg,100%
"NC(=S)c1ccc(OC(=O)Cc2ccccc2Nc2c(Cl)cccc2Cl)cc1 [Compound XVII, [2-(2,6-dichloro-phenylamino)-phenyl]-acetic acid 4-thiocarbamoyl-phenyl ester]",gastric damage score,"[3]; rats fasted 18 h, oral, doses equimolar to diclofenac 20 mg/kg, 3 h after administration, FIG. 1",no gastric damage was seen; also recorded: elicited significantly less gastric damage than diclofenac
same,number of adherent leukocytes compared to the parent NSAID alone,[1]; intragastric 30 μmol/kg,significantly reduced the number of adherent leukocytes per 100 μm vessel length
same,Number of Adherent Leukocytes,[1]; intragastric 30 μmol/kg,2.8 ± 0.5 per 100 μm vessel length
same,inhibition at 4.1 mg/kg,"[4]; rat, po, read-out: inhibition of whole blood thromboxane synthesis (COX-1)",> 80%
same,paw edema (paw volume increase),[7],reduced paw edema to a greater extent
same,paw edema (paw volume increase),[7]; 3 mg/kg,comparable to the effect of diclofenac at a dose of 10 mg/kg
same,gastric ulcer healing (ulcer area),[6]; 30 μmol/kg twice-daily orally for 4 days,exhibited significantly greater healing
same,percent incidence of gastric damage compared to the parent NSAID alone,[2]; intragastric 30 μmol/kg,significantly reduced the percent incidence of gastric damage when compared to diclofenac alone
same,Percent Incidence of Gastric Damage,[2]; intragastric 30 μmol/kg,20%
"Cc1ccc(Nc2c(F)cccc2Cl)c(CC(=O)Oc2ccc(C(N)=S)cc2)c1 [Compound XVIII, 4-thiocarbamoylphenyl 2-(2-(2-chloro-6-fluorophenylamino)-5-methylphenyl)acetate]",number of adherent leukocytes compared to the parent NSAID alone,[1]; intragastric 30 μmol/kg,significantly reduced the number of adherent leukocytes per 100 μm vessel length when compared to lumiracoxib alone
same,Number of Adherent Leukocytes,[1]; intragastric 30 μmol/kg,2.3 ± 0.4 per 100 μm vessel length
same,percent incidence of gastric damage compared to the parent NSAID alone,[2]; intragastric 30 μmol/kg,still showed no incidences of gastric damage
same,Percent Incidence of Gastric Damage,[2]; intragastric 30 μmol/kg,0%
"Oc1ccc(-c2cc(=S)ss2)cc1 [ADT-OH, 5-p-hydroxyphenyl-1,2-dithiole-3-thione, reference compound]",gastric PGE2 synthesis,[8],did not reduce gastric PGE2 synthesis when compared to vehicle
same,COX-1 activity (whole blood thromboxane synthesis),"[4]; hydrogen sulfide releasing moieties alone, dose not given, FIG. 8",neither of the hydrogen sulfide releasing moieties (ADT-OH and TBZ) significantly affected COX-1 activity
same,COX-2 activity (exudate PGE2),"[5]; hydrogen sulfide releasing moieties alone, dose not given",neither of the hydrogen sulfide releasing moieties (ADT-OH and TBZ) significantly affected COX-2 activity
"CC(=O)Oc1ccccc1C(=O)Oc1ccc(C(N)=S)cc1 [Compound XVI, 2-Acetoxy-benzoic acid 4-thiocarbamoyl-phenyl ester]",number of adherent leukocytes compared to the parent NSAID alone,[1]; intragastric 30 μmol/kg,significantly reduced the number of adherent leukocytes per 100 μm vessel length when compared to aspirin alone
same,Number of Adherent Leukocytes,[1]; intragastric 30 μmol/kg,2.3 ± 0.3 per 100 μm vessel length
same,percent incidence of gastric damage compared to the parent NSAID alone,[2]; intragastric 30 μmol/kg,significantly reduced the percent incidence of gastric damage when compared to aspirin alone
same,Percent Incidence of Gastric Damage,[2]; intragastric 30 μmol/kg,0%
"CC(=O)Oc1ccccc1C(=O)Oc1ccc(-c2cc(=S)ss2)cc1 [Compound I, 4-(5-thioxo-5H-1,2-dithiol-3-yl)phenyl 2-acetoxybenzoate]",number of adherent leukocytes compared to the parent NSAID alone,[1]; intragastric 30 μmol/kg,significantly reduced the number of adherent leukocytes per 100 μm vessel length when compared to aspirin alone
same,Number of Adherent Leukocytes,[1]; intragastric 30 μmol/kg,2.5 ± 0.3 per 100 μm vessel length
same,percent incidence of gastric damage compared to the parent NSAID alone,[2]; intragastric 30 μmol/kg,significantly reduced the percent incidence of gastric damage when compared to aspirin alone
same,Percent Incidence of Gastric Damage,[2]; intragastric 30 μmol/kg,20%
